Tested on: A. viscosus
Assay: Multi-species biofilm composition: absolute abundance of A. viscosus
Type: cell-based
Conditions: mean±SD n=3
Procedure: Biofilms are grown vertically on Calcium Deficient Hydroxyapatite (CAD-HA) disks (Hitemco Medical, Old Bethpage, USA) using the Amsterdam Active Adhesion model. Biofilms are allowed to establish during 24 h (37° C., 170 rpm) under micro-aerophilic conditions (6% O2, 7% CO2, 7% H2, 80% N2). After this 24 h, disks are rinsed 3 times a day for 3 minutes (RT, 250 rpm), for 3 consecutive days, by transferring the lid containing the disks to a new 24-well plate containing 2 mL/well of the appropriate substrate solution. As a negative control, PBS (pH 5.7) without substrate supplementation is used. After each rinsing step, disks are shortly dip-rinsed in a new 24-well plate containing fresh modified BHI medium (2 mL/well) to remove remaining substrate traces. Subsequently, the lid is transferred to another 24-well plate containing fresh modified BHI medium (2 mL/well), followed by incubation (micro-aerophilic, 37° C., 170 rpm) until the next rinsing step.
NADM, N-acetyl-D-glucosamine (“NADG”) and D-(+)-mannose are selected to determine their effects on multi-species biofilm composition. […] decrease in absolute numbers in at least four of the pathogenic bacterial species tested in the assay, compared to the control, the results of which are described in Table 1 below. Absolute abundances of bacterial species are shown as mean±SD (n=3) logarithmic values of the genome equivalents per millilitre (log(Geq/mL)).

SMILES | Absolute abundance Av (A. viscosus) (substrate 1%(w/v) in PBS) | Absolute abundance Av (A. viscosus) (substrate 1 M in PBS)
O=C[C@@H](O)[C@@H](O)[C@H](O)[C@H](O)CO [D-mannose, D-(+)-mannose] | 8.00 ± 0.17 log(Geq/mL) | 6.40 ± 0.48 log(Geq/mL)
CC(=O)N[C@H]1C(O)O[C@H](CO)[C@@H](O)[C@@H]1O (stereo partly drawn) [NADG, N-acetyl-D-glucosamine, reference compound] | 7.83 ± 0.31 log(Geq/mL) | 6.92 ± 0.45 log(Geq/mL)
CC(=O)N[C@@H]1C(O)O[C@H](CO)[C@@H](O)[C@@H]1O (stereo partly drawn) [NADM, N-acetyl-D-mannosamine] | 7.73 ± 0.09 log(Geq/mL) | 8.35 ± 0.30 log(Geq/mL)

From patent publication US20220257491A1, “Prebiotic Oral Care Compositions and Methods” (Colgate-Palmolive Company, priority 2021, published 2022)
